Data as given in patent US7989441B2, “Organic compounds” (Novartis AG, priority 2005, dated 2011).
Residues, ends and D or L forms follow the SMILES beside them.

Experiments:
[1] = target: T1, GST-BIR3 fusion containing amino acids 248-358 from XIAP (Homo sapiens, UniProt P98170); experiment: XIAP BIR3 Smac Elisa; assay type: binding; conditions: concentration which displaces half of GST-BIR3 signal, IAP not given
T1 construct: a GST-BIR3 fusion containing amino acids 248-358 from XIAP was used
Protocol: (§1) In order to measure the ability of the inventive compounds to bind the BIR3 peptide binding pocket, a solution phase assay on the FMAT or ELISA technology platform is utilized.
(§2) Compounds are incubated with GST-BIR3 fusion protein and biotinylated SMAC peptide (AVPFAQK) in stretavidin-coated 96-well plates. For XIAP BIR3 Smac Elisa, a GST-BIR3 fusion containing amino acids 248-358 from XIAP was used. For CIAP1 BIR3 Smac Elisa, a GST-BIR3 fusion containing amino acids 259-364 from CIAP1 was used. Following a 30-minute incubation, wells are extensively washed. The remaining GST-BIR3 fusion protein is monitored by ELISA assay involving first, incubation with goat anti-GST antibodies followed by washing and incubation with alkaline phosphatase conjugated anti-goat antibodies. Signal is amplified using Attophos (Promega) and read with Cytoflour Ex 450 nm/40 and Em 580 nm. IC50s correspond to concentration of compound which displaces half of GST-BIR3 signal. The IC50 for non-biotinylated Smac is 400 nM.

[2] = target: T2, GST-BIR3 fusion containing amino acids 259-364 from CIAP1 (Homo sapiens, UniProt Q13490); experiment: CIAP1 BIR3 Smac Elisa; assay type: binding; conditions: concentration which displaces half of GST-BIR3 signal, IAP not given
T2 construct: a GST-BIR3 fusion containing amino acids 259-364 from CIAP1 was used
Protocol: as §1, §2

[3] = test system: GST-BIR3 fusion protein (BIR3 peptide binding pocket); experiment: FMAT solution phase assay: competition of GST-BIR3 off Smac peptide beads
Protocol: as §1
Biotinylated Smac 7-mer peptide (AVPIAQK, lysine ε-amino group is biotinylated) is immobilized on streptavidin coated beads. GST-BIR3 fusion protein is precipitated with FMAT beads and is detected using fluorescent tagged anti-GST antibodies. […] The IC50 for non-biotinylated Smac is 400 nM.

T1 sequence (P98170 248-358): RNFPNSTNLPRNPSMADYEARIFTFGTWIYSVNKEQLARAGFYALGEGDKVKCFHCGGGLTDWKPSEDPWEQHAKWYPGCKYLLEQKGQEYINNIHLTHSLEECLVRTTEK
T2 sequence (Q13490 259-364): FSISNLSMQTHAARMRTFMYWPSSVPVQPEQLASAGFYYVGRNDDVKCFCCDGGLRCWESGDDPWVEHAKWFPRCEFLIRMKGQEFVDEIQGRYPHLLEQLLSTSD

- IC50 [1]: 400 nM
- IC50 [2]: 400 nM
- competing GST-BIR3 off the FMAT beads ([3]; FIG. 2): highly effective
- IC50 ([3]; FMAT, displacement of GST-BIR3 from biotinylated Smac 7-mer peptide (AVPIAQK) beads): 400 nM
SMILES: CC[C@H](C)[C@H](NC(=O)[C@@H]1CCCN1C(=O)[C@@H](NC(=O)[C@H](C)N)C(C)C)C(=O)N[C@@H](C)C(=O)N[C@@H](CCC(N)=O)C(=O)N[C@@H](CCCCN)C(=O)O [non-biotinylated Smac] (H-AVPIAQK-OH; N-terminus and C-terminus assumed)
